Values quoted from earlier work, collected in patent US4100185A, “Cyclohexanone 5,6-benzo analogues of prostaglandin E” (Miles Laboratories, Inc., priority 1977, dated 1978).
“Also recorded” adds a separate entry of the source. Where two headings read alike, the source gives them in different places.

Key:
[1] = test system: thyroid; details: mice
[2] = test system: adrenal glands; details: hypophysectimized rats
[3] = test system: gastric secretion; details: dogs
[4] = test system: adrenergic nervie endings; details: guinea pig
[5] = test system: tracheal smooth muscle; details: in vitro
[6] = test system: female reproductive system; details: in vivo
[7] = test system: growth hormone; details: rats
[8] = test system: motor pathways in the central nervous system
[9] = test system: blood platelets; details: in vitro
[10] = test system: ovarian progesterone secretion; details: sheep
[11] = variety of mammals
[12] = test system: gastric secretion; details: man

Row | Structure (SMILES) | effect on thyroid activity [1] | effect on steroidogenesis in the adrenal glands [2] | effect on gastric secretion [3] | effect on transmitter release from adrenergic nerve endings [4] | effect on tracheal smooth muscle [5] | effect on fertility, gestation, labor [6] | effect on growth hormone [7] | effect on transmission in motor pathways [8] | effect on thrombogenesis [9] | effect on ovarian progesterone secretion [10] | luteolytic effect [11] | effect on gastric secretion [12]
1 | CCCCC[C@H](O)/C=C/[C@H]1[C@H](O)CC(=O)[C@@H]1C/C=C\CCCC(=O)O [PGE2] | increase thyroid activity | stimulate steriodogenesis in the adrenal glands | inhibit gastric secretion | inhibit transmitter release from adrenergic nervie endings | relax | exerts potent oxytocic effects in inducing labor | increase release of growth hormone |  |  |  |  | 
2 | CCCCC[C@H](O)/C=C/[C@@H]1[C@@H](CCCCCCC(=O)O)[C@H](O)C[C@H]1O [PGF1β] | increase thyroid activity |  |  |  |  |  |  |  |  |  |  | 
3 | CCCCC[C@H](O)/C=C/[C@H]1[C@H](O)CC(=O)[C@@H]1CCCCCCC(=O)O [PGE1, prostaglandin E1] | increase thyroid activity | stimulate steriodogenesis in the adrenal glands | inhibit gastric secretion | inhibit transmitter release from adrenergic nervie endings | relax |  | increase release of growth hormone | retards | inhibits thrombogenesis in vitro | inhibit ovarian progesterone secretion |  | 
4 | CCCCC[C@H](O)/C=C/[C@@H]1[C@@H](C/C=C\CCCC(=O)O)[C@@H](O)C[C@H]1O [PGF2α] |  |  |  |  | contracts the smooth muscle | has contragestational effects; also recorded: induces spontaneous abortions in early pregnancy |  | facilitates transmission in motor pathways in the central nervous system |  |  |  | 
5 | CCCCC[C@H](O)/C=C/[C@@H]1[C@@H](CCCCCCC(=O)O)[C@@H](O)C[C@H]1O [PGF1α] | increase thyroid activity | stimulate steriodogenesis in the adrenal glands |  |  |  |  |  |  |  | inhibit ovarian progesterone secretion | act as luteolytic factors | 
6 | CCCCC[C@H](O)/C=C/[C@H]1C=CC(=O)[C@@H]1CCCCCCC(=O)O [PGA1] |  |  | inhibit gastric secretion |  |  |  | increased synthesis of that hormone |  |  |  |  | exhibits similar activity in man
